Assay results taken from ChEMBL document CHEMBL1141079, “Cytostatic 6-arylpurine nucleosides. 6. SAR in anti-HCV and cytostatic activity of extended series of 6-hetarylpurine ribonucleosides” (J Med Chem, 2005).

Tests used:
Hepatitis C virus = experiment: Effective concentration required to reduce Hepatitis C virus; format: functional, Hepacivirus hominis
CCRF-CEM = experiment: In vitro inhibitory concentration against human T lymphoblastoid CCRF-CEM cell line; format: functional, cell-based
HL-60 [1] = experiment: In vitro inhibitory concentration against human promyelocytic leukemia HL60 cell line; format: functional, cell-based
L1210 [2] = experiment: In vitro inhibitory concentration against mouse leukemia L1210 cell line; format: functional, cell-based
HeLa [3] = experiment: In vitro inhibitory concentration against human cervix carcinoma HeLaS3 cell line; format: functional, cell-based
Homo sapiens = species on record: Homo sapiens; experiment: Cytotoxic concentration required to reduce the cellular rRNA level in hepatitis C virus replicon cells
HeLa [4] = experiment: In vitro inhibitory concentration against human cervix carcinoma HeLaS3 cell line; n.a. is not active; format: functional, cell-based
L1210 [5] = experiment: In vitro inhibitory concentration against mouse leukemia L1210 cell line; n.a. is not active; format: functional, cell-based
HL-60 [6] = experiment: In vitro inhibitory concentration against human promyelocytic leukemia HL60 cell line; n.a. is not active; format: functional, cell-based
[7] = Homo sapiens, CCRF-CEM, read-out: IC50

Structure (SMILES) | EC90 (Hepatitis C virus) [µM] | IC50 (CCRF-CEM; [7]) [µM] | IC50 (HL-60 [1]) [µM] | IC50 (L1210 [2]) [µM] | IC50 (HeLa [3]) [µM] | CC50 (Homo sapiens) [µM] | IC50 (HeLa [4]) | IC50 (L1210 [5]) | IC50 (CCRF-CEM; ccrf-cem) | IC50 (HL-60 [6])
OC[C@H]1OC(n2cnc3c(-c4ccccn4)ncnc32)[C@H](O)[C@@H]1O (stereo partly drawn) | 6 | 0.9 | 5.6 | 4.3 | 9.7 | 2.7 | – | – | – | –
Cc1cc(-c2ncnc3c2ncn3C2O[C@H](CO)[C@@H](O)[C@H]2O)on1 (stereo partly drawn) | > 100 | – | – | – | – | > 100 | Not Active | Not Active | Not Active | Not Active
C[C@@]1(O)[C@H](O)[C@@H](CO)O[C@H]1n1cnc2c(N)ncnc21 | 1.14 | – | – | – | – | 15 | – | – | – | –
Cn1cccc1-c1ncnc2c1ncn2C1O[C@H](CO)[C@@H](O)[C@H]1O (stereo partly drawn) | > 100 | 2 | 15.7 | – | – | > 100 | Not Active | Not Active | – | –
Cc1csc(-c2ncnc3c2ncn3C2O[C@H](CO)[C@@H](O)[C@H]2O)n1 (stereo partly drawn) | > 100 | 6 | – | – | – | > 100 | Not Active | Not Active | – | Not Active
Cc1csc(-c2ncnc3c2ncn3C2O[C@H](CO)[C@@H](O)[C@H]2O)c1 (stereo partly drawn) | 40.7 | 2.9 | 5.6 | – | 11.4 | 7 | – | Not Active | – | –
OC[C@H]1OC(n2cnc3c(-c4cc[nH]n4)ncnc32)[C@H](O)[C@@H]1O (stereo partly drawn) | 0.8 | 0.75 | 1.17 | 19.8 | – | 0.6 | Not Active | – | – | –
OC[C@H]1OC(n2cnc3c(-c4cc[nH]c4)ncnc32)[C@H](O)[C@@H]1O (stereo partly drawn) | 0.14 | 1.03 | 3.2 | 17.5 | – | < 0.1 | Not Active | – | – | –
Cn1nccc1-c1ncnc2c1ncn2C1O[C@H](CO)[C@@H](O)[C@H]1O (stereo partly drawn) | > 100 | – | – | – | – | > 100 | Not Active | Not Active | Not Active | Not Active
OC[C@H]1OC(n2cnc3c(-c4ccco4)ncnc32)[C@H](O)[C@@H]1O (stereo partly drawn) | 0.4 | 0.6 | 2.7 | 2 | 25 | 1.6 | – | – | – | –
OC[C@H]1O[C@@H](n2cnc3c(-c4cccs4)ncnc32)[C@H](O)[C@@H]1O | 0.7 | 0.6 | 4.9 | 0.37 | 25 | 1.1 | – | – | – | –
OC[C@H]1OC(n2cnc3c(-c4nccs4)ncnc32)[C@H](O)[C@@H]1O (stereo partly drawn) | 6 | 2.73 | 6.3 | 16 | – | 6.7 | Not Active | – | – | –
OC[C@H]1OC(n2cnc3c(-c4ccc(Cl)cc4)ncnc32)[C@H](O)[C@@H]1O (stereo partly drawn) | > 100 | – | – | – | – | > 100 | – | Not Active | – | Not Active
OC[C@H]1OC(n2cnc3c(-c4cc5ccccc5o4)ncnc32)[C@H](O)[C@@H]1O (stereo partly drawn) | > 100 | 15 | – | – | – | > 100 | Not Active | Not Active | – | Not Active
OC[C@H]1O[C@@H](n2cnc3c(-c4ccccc4)ncnc32)[C@H](O)[C@@H]1O | 16.7 | – | 6.3 | – | – | 8.3 | – | – | – | –
OC[C@H]1OC(n2cnc3c(-c4ccoc4)ncnc32)[C@H](O)[C@@H]1O (stereo partly drawn) | 1.4 | 1.65 | 3.3 | – | – | 6.9 | Not Active | Not Active | – | –
OC[C@H]1OC(n2cnc3c(-c4ccc(F)cc4)ncnc32)[C@H](O)[C@@H]1O (stereo partly drawn) | 49.5 | 0.7 | 6.3 | – | 2.7 | 9.2 | – | – | – | –
Cc1ccsc1-c1ncnc2c1ncn2C1O[C@H](CO)[C@@H](O)[C@H]1O (stereo partly drawn) | > 100 | 2.5 | 4.5 | – | > 20 | > 100 | – | Not Active | – | –
COc1ccc(-c2ncnc3c2ncn3C2O[C@H](CO)[C@@H](O)[C@H]2O)cc1 (stereo partly drawn) | > 100 | – | 7.6 | – | – | < 10 | – | – | – | –
OC[C@H]1OC(n2cnc3c(-c4ccsc4)ncnc32)[C@H](O)[C@@H]1O (stereo partly drawn) | 0.82 | 1.64 | 3.8 | 10.8 | – | < 0.1 | Not Active | – | – | –
OC[C@H]1OC(n2cnc3c(-c4ccc(O)cc4)ncnc32)[C@H](O)[C@@H]1O (stereo partly drawn) | 2.6 | 1.25 | 7.6 | 5 | 32.5 | 5.2 | – | – | – | –
